# The source made the active and inactive calls. The calls are words filed in the database; no cut-off is given here.
# How the values were obtained:
# PC-12 [1] = test: Neuroprotective activity against 6-OHDA-induced oxidative damage in rat PC-12 cells assessed as increase in cell survival at 1 to 10 uM pretreated for 4 hrs followed by 500 uM 6-OHDA stimulation and measured after 24 hrs by MTT assay; type: functional, cell-based; details: dose 1-10 µM, time 28.0 hrs
# PC-12 [2] = test: Neuroprotective activity against H2O2-induced oxidative damage in rat PC-12 cells assessed as increase in catalase protein expression at 10 uM pretreated for 4 hrs followed by H2O2 stimulation and measured after 24 hrs by Western blot analysis; type: functional, cell-based; details: time 28.0 hrs
# PC-12 [3] = test: (§1) Neuroprotective activity against H2O2-induced oxidative damage in rat PC-12 cells assessed as inhibition of apoptosis by measuring dead cells at 10 uM pretreated for 4 hrs followed by H2O2 stimulation and measured after 24 hrs by Annexin V-FITC/PI staining based flow cytometry analysis (reference value: 5.10%); type: functional; set-up: scale not given: the % may be the effect or the level left; details: time 28 hrs
# [4] = target: T1, Polyamine deacetylase HDAC10 (Homo sapiens, UniProt Q969S8); test: Inhibition of HDAC10 (unknown origin) by TR-FRET assay
# T1 sequence (Q969S8 whole entry): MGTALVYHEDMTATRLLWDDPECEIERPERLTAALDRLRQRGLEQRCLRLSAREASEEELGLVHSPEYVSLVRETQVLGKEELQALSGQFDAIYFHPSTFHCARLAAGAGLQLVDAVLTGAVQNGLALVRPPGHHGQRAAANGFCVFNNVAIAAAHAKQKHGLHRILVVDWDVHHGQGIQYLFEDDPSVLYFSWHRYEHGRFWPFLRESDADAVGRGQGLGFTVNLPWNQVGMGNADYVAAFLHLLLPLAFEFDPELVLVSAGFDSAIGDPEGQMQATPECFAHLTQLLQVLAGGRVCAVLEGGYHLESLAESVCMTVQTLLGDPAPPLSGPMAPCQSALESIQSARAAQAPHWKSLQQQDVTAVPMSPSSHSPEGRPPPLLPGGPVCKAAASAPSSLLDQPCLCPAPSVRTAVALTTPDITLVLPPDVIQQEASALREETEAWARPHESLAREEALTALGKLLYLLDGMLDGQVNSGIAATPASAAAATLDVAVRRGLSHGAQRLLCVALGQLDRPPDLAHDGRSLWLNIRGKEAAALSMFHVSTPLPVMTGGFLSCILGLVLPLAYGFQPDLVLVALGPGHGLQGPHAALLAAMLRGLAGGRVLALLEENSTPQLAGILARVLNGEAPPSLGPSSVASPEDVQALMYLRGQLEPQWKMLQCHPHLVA
# Danio rerio [5] = organism: Danio rerio; test: Effect on anxiety-like behavior in scopolamine induced zebrafish alzheimer disease model assessed as exploratory behavior in upper part of aquarium by measuring increase in swimming speed at 1 mg/L pretreated with scopolamine for 30 mins followed by compound addition for 3 mins by novel tank diving test; type: functional, organism-based
# SH-SY5Y [6] = test: Neuroprotective activity against H2O2-induced oxidative damage in human SH-SY5Y cells assessed as cell survival rate at 10 uM pretreated for 4 hrs followed by 200 uM H2O2 stimulation and measured after 24 hrs by MTT assay relative to control; type: functional; details: time 28 hrs
# PC-12 [7] = test: Induction of neurite outgrowth in rat PC-12 cells measured after 48 hrs by light microscopic analysis; type: functional, cell-based; details: dose 1-10 µM
# PC-12 [8] = test: Induction of neurite outgrowth in rat PC-12 cells assessed as increase in number of neurites per cells at 1 to 10 uM measured after 48 hrs by light microscopic analysis; type: functional, cell-based; details: dose 1-10 µM
# PC-12 [9] = test: Neuroprotective activity against H2O2-induced oxidative damage in rat PC-12 cells assessed as increase in Nrf2 protein expression at 10 uM pretreated for 4 hrs followed by H2O2 stimulation and measured after 24 hrs by Western blot analysis; type: functional, cell-based; details: time 28.0 hrs
# SH-SY5Y [10] = test: Neuroprotective activity against 6-OHDA-induced oxidative damage in human SH-SY5Y cells assessed as increase in cell survival at 1 to 10 uM pretreated for 4 hrs followed by 100 uM 6-OHDA stimulation and measured after 24 hrs by MTT assay; type: functional, cell-based; details: dose 1-10 µM, time 28.0 hrs
# PC-12 [11] = test: Neuroprotective activity against H2O2-induced oxidative damage in rat PC-12 cells assessed as SOD activity at 10 uM pretreated for 4 hrs followed by H2O2 stimulation and measured after 24 hrs by WST-8 assay; type: functional; details: time 28 hrs
# PC-12 [12] = test: Induction of neurite outgrowth in rat PC-12 cells assessed as increase in neuronal growth at 10 uM measured after 48 hrs by light microscopic analysis relative to control; type: functional
# PC-12 [13] = test: as §1, with “early apoptotic” for “dead”, “2.32%)” for “5.10%)”; type: functional; set-up: scale not given: the % may be the effect or the level left; details: time 28 hrs
# PC-12 [14] = test: Neuroprotective activity against H2O2-induced oxidative damage in rat PC-12 cells assessed as inhibition of apoptosis by measuring increase in Bcl-2 protein expression pretreated for 4 hrs followed by H2O2 stimulation and measured after 24 hrs by Western blot analysis; type: functional, cell-based; details: dose 1-10 µM, time 28.0 hrs
# Danio rerio [15] = organism: Danio rerio; test: Cognitive improvement ability in scopolamine induced zebrafish alzheimer disease model assessed as improvement in spatial memory by measuring increase in activity at enriched chamber region at 1 mg/L pretreated with scopolamine for 30 mins followed by compound addition for 3 mins by T-maze test; type: functional, organism-based
# PC-12 [16] = test: Upregulation of GAP-43 protein expression in rat PC-12 cells measured after 24 hrs by Western blot analysis; type: functional, cell-based; details: dose 1-10 µM
# Histone deacetylase 8 = target: T2, Histone deacetylase 8 (Homo sapiens, UniProt Q9BY41); test: Inhibition of HDAC8 (unknown origin)
# T2 sequence (Q9BY41 whole entry): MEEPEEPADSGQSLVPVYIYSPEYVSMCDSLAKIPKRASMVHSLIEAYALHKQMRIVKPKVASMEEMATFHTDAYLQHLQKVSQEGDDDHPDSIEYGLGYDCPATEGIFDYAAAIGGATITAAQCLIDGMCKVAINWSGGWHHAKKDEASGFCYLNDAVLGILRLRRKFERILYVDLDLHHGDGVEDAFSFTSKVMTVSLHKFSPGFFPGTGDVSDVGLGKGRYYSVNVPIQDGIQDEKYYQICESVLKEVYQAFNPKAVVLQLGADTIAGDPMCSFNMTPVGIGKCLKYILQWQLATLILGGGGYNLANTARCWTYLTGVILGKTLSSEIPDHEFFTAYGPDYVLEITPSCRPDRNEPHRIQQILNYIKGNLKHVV
# PC-12 [17] = test: Neuroprotective activity against H2O2-induced oxidative damage in rat PC-12 cells assessed as reduction in intracellular LDH level by measuring residual activity at 5 uM pretreated for 4 hrs followed by H2O2 stimulation and measured after 24 hrs relative to control; type: functional; details: time 28 hrs
# PC-12 [18] = test: Neuroprotective activity against H2O2-induced oxidative damage in rat PC-12 cells assessed as increase in Prx II protein expression measured after 24 hrs by Western blot analysis; type: functional, cell-based; details: dose 1-10 µM
# PC-12 [19] = test: Inhibition of HDAC6 in rat PC-12 cells assessed as increase in acetylated alpha-tubulin level incubated for 6 hrs by Western blot analysis; type: cell-based; details: dose 0.1-10 µM
# PC-12 [20] = test: Induction of neurite outgrowth in rat PC-12 cells assessed as increase in average neuronal length at 1 to 10 uM measured after 48 hrs by light microscopic analysis; type: functional, cell-based; details: dose 1-10 µM
# PC-12 [21] = test: Upregulation of beta-3 tubulin protein expression in rat PC-12 cells measured after 24 hrs by Western blot analysis; type: functional, cell-based; details: dose 1-10 µM
# PC-12 [22] = test: Neuroprotective activity against H2O2-induced oxidative damage in rat PC-12 cells assessed as reduction in intracellular LDH level by measuring residual activity at 1 uM pretreated for 4 hrs followed by H2O2 stimulation and measured after 24 hrs relative to control; type: functional; details: time 28 hrs
structure (smiles),measurement,setting,value
O=C(NO)c1ccc(CN2CCc3c(n(CC4CC4)c4ccc(F)cc34)C2)cc1,Activity,PC-12 [1],Active
same,Activity,PC-12 [2],Active
same,Activity,PC-12 [3],1.12%
same,IC50,[4],0.524 µM
same,Activity,Danio rerio [5],Active
same,Activity,SH-SY5Y [6],78%
same,Activity,PC-12 [7],Dose-Dependent Effect
same,Activity,PC-12 [8],Active
same,Activity,PC-12 [9],Active
same,Activity,SH-SY5Y [10],Active
same,Activity,PC-12 [11],17.16 U/mg
same,Activity,PC-12 [12],15.3%
same,Activity,PC-12 [13],4.22%
same,Activity,PC-12 [14],Dose-Dependent Effect
same,Activity,Danio rerio [15],Active
same,Activity,PC-12 [16],Dose-Dependent Effect
same,IC50,Histone deacetylase 8,1.95 µM
same,Activity,PC-12 [17],50.2%
same,Activity,PC-12 [18],Dose-Dependent Effect
same,inhibition,PC-12 [19],Dose-Dependent Effect
same,Activity,PC-12 [20],Active
same,Activity,PC-12 [21],Dose-Dependent Effect
same,Activity,PC-12 [22],74.3%

# Reference: ChEMBL document CHEMBL5579843, “Multimechanism biological profiling of tetrahydro-β-carboline analogues as selective HDAC6 inhibitors for the treatment of Alzheimer's disease” (Eur J Med Chem, 2024)
